Laboratory results as given in patent US20240209053A1 (Protagonist Therapeutics, Inc., priority 2021, published 2024).
Numbered stars: 1 amine (or outer) side, 2 acyl side, 3 side chain; on linkers, the order of the positions; unused ones are H or OH. Bridge positions count the residues as written; N and C are the ends. Square brackets hold non-standard residues; d marks the D form. Side chains are listed from the residue outwards. Peptide text beside a SMILES is read from it. * marks the point of attachment. Dip = N[C@H](C(=O)O)C(c1ccccc1)c1ccccc1; Hag = O=C([C@H](CCC=[*:3])N[*:1])[*:2]; Palmitoyl = CCCCCCCCCCCCCCCC(=O)*; NMeF = CN[C@@H](Cc1ccccc1)C(=O)O; β3hF = N[C@H](CC(=O)O)Cc1ccccc1; Isovaleryl = CC(C)CC(=O)*; Ahx = NCCCCCC(=O)O

Key:
[1] = target: T1, ferroportin (Homo sapiens, UniProt Q9NP59); experiment: T47D cell-based ferroportin internalization assay in presence of 0.5% mouse serum albumin (MSA); conditions: T47D cells
T1 sequence (Q9NP59 1-571): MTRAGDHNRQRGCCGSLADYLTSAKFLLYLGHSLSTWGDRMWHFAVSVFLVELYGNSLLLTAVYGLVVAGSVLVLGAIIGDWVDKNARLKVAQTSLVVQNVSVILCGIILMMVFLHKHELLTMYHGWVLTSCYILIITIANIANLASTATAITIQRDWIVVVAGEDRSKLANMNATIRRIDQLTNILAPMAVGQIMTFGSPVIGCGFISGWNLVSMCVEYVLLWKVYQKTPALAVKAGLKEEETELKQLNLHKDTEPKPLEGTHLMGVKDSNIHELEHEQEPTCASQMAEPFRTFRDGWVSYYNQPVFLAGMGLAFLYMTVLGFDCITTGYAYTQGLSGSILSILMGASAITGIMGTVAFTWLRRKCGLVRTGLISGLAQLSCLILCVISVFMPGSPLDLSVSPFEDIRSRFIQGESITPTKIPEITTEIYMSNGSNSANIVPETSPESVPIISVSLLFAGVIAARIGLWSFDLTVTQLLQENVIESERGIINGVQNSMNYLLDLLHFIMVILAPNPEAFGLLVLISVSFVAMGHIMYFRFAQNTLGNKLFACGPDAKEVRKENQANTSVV
Method: The potency of the peptides in causing ferroportin internalization was evaluated in a T47D cell-based assay. […] In this internalization assay, the potency of the test peptides was evaluated in presence of serum albumin which is the main protein component in the blood. T47D cells were maintained in RPMI media (containing required amount of fetal bovine serum) and regularly sub-cultured. In preparation for the assay, the cells were seeded in 96-well plates at a density of 80-100 k cells per well in 100 ul volume and allowed to rest overnight. On the next day, test peptides were first prepared in dilution series (10-point series, starting concentration of ˜5 μM, typically 3-4×fold dilution steps), all with 0.5% mouse serum albumin (MSA purified from mouse serum; Sigma, A3139). The test peptide dilution series were allowed to incubate at room temperature for 30 min. Then the media was aspirated from the 96-well cell plate and test peptide dilution series were added. After 1 hr incubation, the media with test peptides was aspirated out and AF647-conjugated detection peptide was added at fixed concentration of 200 nM. The AF647-conjugated detection peptide was previously verified to bind to ferroportin and cause its internalization. The cells were washed again after a 2 hr incubation in preparation for flow cytometry analysis. The Median Fluorescence Intensity (MFI) of the AF647-positive population was measured (after removing dead cells and non-singlets from the analysis). The MFI values were used to generate a dose-response curve and obtain IC50 potencies for the test peptides. The IC50 potencies were calculated by using 4-parameter non-linear fitting function in Graphpad Prism (Table 6A).

[2] = target: T2, human ferroportin (SLC40A1) (Homo sapiens, UniProt Q9NP59); experiment: FPN activity assay: internalization/degradation of ferroportin-GFP in stably transfected HEK293 cells (decrease in GFP fluorescence); assay type: cell-based; conditions: compound incubated at least 18 hours
T2 sequence (Q9NP59 1-571): T1 sequence (Q9NP59 1-571)
Method: Peptide analogues were tested in vitro for induction of internalization of the human ferroportin protein. Following internalization, the ferroporin protein is degraded. The assay used (FPN activity assay) measures a decrease in fluorescence of the receptor. The cDNA encoding the human ferroportin (SLC40A1) was cloned from a cDNA clone from Origene (NM_014585). The DNA encoding the ferroportin was amplified by PCR using primers also encoding terminal restriction sites for subcloning, but without the termination codon. The ferroportin receptor was subcloned into a mammalian GFP expression vector containing a neomycin (G418) resistance marker in such that the reading frame of the ferroportin was fused in frame with the GFP protein. The fidelity of the DNA encoding the protein was confirmed by DNA sequencing. HEK293 cells were used for transfection of the ferroportin-GFP receptor expression plasmid. The cells were grown according to standard protocol in growth medium and transfected with the plasmids using Lipofectamine (manufacturer's protocol, Invitrogen). The cells stably expressing ferroportin-GFP were selected using G418 in the growth medium (in that only cells that have taken up and incorporated the cDNA expression plasmid survive) and sorted several times on a Cytomation MoFloTM cell sorter to obtain the GFP-positive cells (488 nm/530 nm). The cells were propagated and frozen in aliquots. […] Compound was added to desired final concentration for at least 18 hours in the incubator. […] Compound was added to desired final concentration for at least 18 hours but no more than 24 hours in the incubator. […] The “RI” in RI-Mini-Hepcidin refers to Retro Inverse. A retro inverse peptide is a peptide with a reversed sequence in all D amino acids. An example is that […] becomes […]. The EC50 of these reference compounds for ferroportin internalization/degradation was determined according to the FPN activity assay described above. These peptides served as control standards.

Row | SMILES | IC50 [1] [nM] | IC50 [2] [nM]
1 | CCCCCCCCCCCCCCCC(=O)NCCCCCC(=O)NCCCC[C@H](NC(=O)C[C@H](Cc1ccccc1)NC(=O)[C@@H]1CCC=CCC[C@H](NC(=O)CC(C)C)C(=O)N[C@@H]([C@@H](C)O)C(=O)N[C@@H](Cc2c[nH]cn2)C(=O)N(C)[C@@H](Cc2ccccc2)C(=O)N2CCC[C@H]2C(=O)N[C@@H](C)C(=O)N[C@@H]([C@@H](C)CC)C(=O)N1)C(=O)N[C@H](CCCCN)C(N)=O [Compd 51] (Isovaleryl-[Hag]TH[NMeF]PAI[Hag][β3hF]K([Ahx-Palmitoyl])[dK]-NH2; staple 1-8) | > 500 | 
2 | CCCCCCCCCCCCCCCC(=O)NCCCCCC(=O)NCCCC[C@H](NC(=O)C[C@H](Cc1ccccc1)NC(=O)[C@H]1CCC=CCCC[C@@H](NC(=O)CC(C)C)C(=O)N[C@@H]([C@@H](C)O)C(=O)N[C@@H](Cc2c[nH]cn2)C(=O)N[C@@H](C(c2ccccc2)c2ccccc2)C(=O)N2CCC[C@H]2C(=O)N[C@@H](C)C(=O)N[C@@H]([C@@H](C)CC)C(=O)N1)C(=O)N[C@H](CCCCN)C(N)=O [Compd 74] | > 500 | 100 to 500
3 | CCCCCCCCCCCCCCCC(=O)NCCCCCC(=O)NCCCC[C@@H]1NC(=O)[C@@H]2CCCN2C(=O)[C@H](C(c2ccccc2)c2ccccc2)NC(=O)[C@H](Cc2c[nH]cn2)NC(=O)[C@H]([C@@H](C)O)NC(=O)[C@@H](NC(=O)CC(C)C)CCC=CCC[C@@H](C(=O)N[C@H](CC(=O)N[C@H](CCCCN)C(N)=O)Cc2ccccc2)NC(=O)[C@H]([C@@H](C)CC)NC1=O [Compd 36] | 1 to 10 | 10 to 100
4 | CCCCCCCCCCCCCCCC(=O)NCCCCCC(=O)NCCCC[C@@H]1NC(=O)[C@@H]2CCCN2C(=O)[C@H](C(c2ccccc2)c2ccccc2)NC(=O)[C@H](Cc2c[nH]cn2)NC(=O)[C@H]([C@@H](C)O)NC(=O)[C@@H](NC(=O)CC(C)C)CCC=CCC[C@@H](C(=O)N[C@H](CC(=O)N[C@H](CCCCN)C(N)=O)Cc2ccccc2)NC1=O (single isomer, unassigned) [Compd 38] |  | > 500
5 | CCCCCCCCCCCCCCCC(=O)NCCCCCC(=O)NCCCC[C@H](NC(=O)[C@@H]1CCC=CCC[C@H](NC(=O)CC(C)C)C(=O)N[C@@H]([C@@H](C)O)C(=O)N[C@@H](Cc2c[nH]cn2)C(=O)N[C@@H](C(c2ccccc2)c2ccccc2)C(=O)N2CCC[C@H]2C(=O)N1)C(N)=O [Compd 21] (Isovaleryl-[Hag]TH[Dip]P[Hag]K([Ahx-Palmitoyl])-NH2; staple 1-6) |  | > 500
6 | CCCCCCCCCCCCCCCC(=O)NCCCCCC(=O)NCCCC[C@H](NC(=O)C[C@H](Cc1ccccc1)NC(=O)[C@@H]1CCC=CCC[C@H](NC(=O)CC(C)C)C(=O)N[C@@H]([C@@H](C)O)C(=O)N(C)[C@@H](Cc2c[nH]cn2)C(=O)N[C@@H](C(c2ccccc2)c2ccccc2)C(=O)N2CCC[C@H]2C(=O)N[C@@H](C)C(=O)N[C@@H]([C@@H](C)CC)C(=O)N1)C(=O)N[C@H](CCCCN)C(N)=O [Compd 50] | > 500 | 
7 | CCCCCCCCCCCCCCCC(=O)NCCCCCC(=O)NCCCC[C@@H]1NC(=O)[C@H](C)NC(=O)[C@@H]2CCCN2C(=O)[C@H](C(c2ccccc2)c2ccccc2)NC(=O)[C@H](Cc2c[nH]cn2)NC(=O)[C@H]([C@@H](C)O)NC(=O)[C@@H](NC(=O)CC(C)C)CCC=CCC[C@@H](C(=O)N[C@H](CC(=O)N[C@H](CCCCN)C(N)=O)Cc2ccccc2)NC1=O (single isomer, unassigned) [Compd 39] |  | 100 to 500

Next, values leading:

Row | IC50 [1] [nM] | IC50 [2] [nM] | SMILES
8 | 1 to 10 | 1 to 10 | CCCCCCCCCCCCCCCC(=O)NCCCCCC(=O)NCCCC[C@H](NC(=O)C[C@H](Cc1ccccc1)NC(=O)[C@@H]1CCC=CCCC[C@H](NC(=O)CC(C)C)C(=O)N[C@@H]([C@@H](C)O)C(=O)N[C@@H](Cc2c[nH]cn2)C(=O)N[C@@H](C(c2ccccc2)c2ccccc2)C(=O)N2CCC[C@H]2C(=O)N[C@@H](C)C(=O)N[C@@H]([C@@H](C)CC)C(=O)N1)C(=O)N[C@H](CCCCN)C(N)=O [Compd 29]
9 | 100 to 500 | 10 to 100 | CCCCCCCCCCCCCCCC(=O)NCCCCCC(=O)NCCCC[C@H](NC(=O)C[C@H](Cc1ccccc1)NC(=O)[C@H]1CCC=CCCC[C@H](NC(=O)CC(C)C)C(=O)N[C@@H]([C@@H](C)O)C(=O)N[C@@H](Cc2c[nH]cn2)C(=O)N[C@@H](C(c2ccccc2)c2ccccc2)C(=O)N2CCC[C@H]2C(=O)N[C@@H](C)C(=O)N[C@@H]([C@@H](C)CC)C(=O)N1)C(=O)N[C@H](CCCCN)C(N)=O [Compd 78]
10 | 1 to 10 | 10 to 100 | CCCCCCCCCCCCCCCC(=O)NCCCCCC(=O)NCCCC[C@H](NC(=O)C[C@H](Cc1ccccc1)NC(=O)[C@@H](CCCCN)NC(=O)[C@@H]1CCC=CCC[C@H](NC(=O)[C@@H]2CCCN2C(=O)[C@@H](NC(=O)[C@H](Cc2c[nH]cn2)NC(=O)[C@@H](NC(=O)[C@H](CCC(=O)O)NC(=O)CC(C)C)[C@@H](C)O)C(c2ccccc2)c2ccccc2)C(=O)N1)C(=O)N[C@H](CCCCN)C(N)=O [Compd 15]
11 | 10 to 100 | 10 to 100 | CCCCCCCCCCCCCCCC(=O)NCCCCCC(=O)NCCCC[C@H](NC(=O)C[C@H](Cc1ccccc1)NC(=O)[C@@H]1CC=CCC[C@H](NC(=O)CC(C)C)C(=O)N[C@@H]([C@@H](C)O)C(=O)N[C@@H](Cc2c[nH]cn2)C(=O)N[C@@H](C(c2ccccc2)c2ccccc2)C(=O)N2CCC[C@H]2C(=O)N[C@@H](C)C(=O)N[C@@H]([C@@H](C)CC)C(=O)N1)C(=O)N[C@H](CCCCN)C(N)=O [Compd 26]
12 | 10 to 100 | 1 to 10 | CCCCCCCCCCCCCCCC(=O)NCCCCCC(=O)NCCCC[C@H](NC(=O)C[C@H](Cc1ccccc1)NC(=O)[C@@H]1CC=CCC[C@H](NC(=O)CC(C)C)C(=O)N[C@@H]([C@@H](C)O)C(=O)N[C@@H](Cc2c[nH]cn2)C(=O)N[C@@H](C(c2ccccc2)c2ccccc2)C(=O)N2CCC[C@H]2C(=O)N[C@@H](C)C(=O)N[C@@H]([C@@H](C)CC)C(=O)N1)C(=O)N[C@@H](CCCNC(=N)N)C(N)=O [Compd 22]
13 | 1 to 10 | 1 to 10 | CCCCCCCCCCCCCCCC(=O)NCCCCCC(=O)NCCCC[C@H](NC(=O)C[C@H](Cc1ccccc1)NC(=O)[C@H]1CCCC=CCCC[C@H](NC(=O)CC(C)C)C(=O)N[C@@H]([C@@H](C)O)C(=O)N[C@@H](Cc2c[nH]cn2)C(=O)N[C@@H](C(c2ccccc2)c2ccccc2)C(=O)N2CCC[C@H]2C(=O)N[C@@H](C)C(=O)N[C@@H]([C@@H](C)CC)C(=O)N1)C(=O)N[C@H](CCCCN)C(N)=O [Compd 77]
14 | 1 to 10 | 10 to 100 | CCCCCCCCCCCCCCCC(=O)NCCCCCC(=O)NCCCC[C@H](NC(=O)C[C@H](Cc1ccccc1)NC(=O)[C@@H]1CCC=CCC[C@H](NC(=O)[C@@H]2CCCN2C(=O)[C@@H](NC(=O)[C@H](Cc2c[nH]cn2)NC(=O)[C@@H](NC(=O)[C@H](CCC(=O)O)NC(=O)CC(C)C)[C@@H](C)O)C(c2ccccc2)c2ccccc2)C(=O)N[C@@H]([C@@H](C)CC)C(=O)N1)C(=O)N[C@H](CCCCN)C(N)=O [Compd 6] (Isovaleryl-ETH[Dip]P[Hag]I[Hag][β3hF]K([Ahx-Palmitoyl])[dK]-NH2; staple 6-8)
